Source: patent US5262411A, “Isocephem derivatives, and antimicrobial composition containing the derivatives” (Otsuka Pharmaceutical Co., Ltd., priority 1989, dated 1993)
≈ marks a conversion by molar mass, not a printed value. Like-named read-outs stand apart in the source and are kept apart here.

Assays:
Assay type in all cases: cell-based
[1] = tested on: K. pneumoniae NCTC-9632; test: MIC against K. pneumoniae NCTC-9632 by the plate diluted method; conditions: Klebsiella pneumoniae, NCTC9632
Method: (§1) In order to investigate the in vitro activity of the test compounds against various bacteria, the minimal inhibitory concentration (MIC) values were determined by the plate diluted method (See CHEMOTHERAPY, 22, 1126-1128, 1974.)
(§2) Each strain was adjusted to 1×10^6 cells/ml (O.D. 600 mμ, 0.07 to 0.16).

[2] = tested on: S. marcescens IFO 12648; test: MIC against S. marcescens IFO 12648 by the plate diluted method; conditions: Serratia marcescens, IFO12648
Method: as §1, §2

[3] = tested on: A. calcoaceticus Ac-54; test: MIC against A. calcoaceticus Ac-54 by the plate diluted method; conditions: Acinetobacter calcoaceticus, AC54
Method: as §1, §2

[4] = tested on: M. moganii IIDkono; test: MIC against M. moganii IIDkono by the plate diluted method
Method: as §1, §2

[5] = tested on: S. aureaus FDA-209P; test: MIC against S. aureaus FDA-209P by the plate diluted method; conditions: Staphylococcus aureus, FDA209P
Method: as §1, §2

[6] = tested on: P. aeruginosa ATCC-10145; test: MIC against P. aeruginosa ATCC-10145 by the plate diluted method; conditions: Pseudomonas aeruginosa, ATCC10145
Method: as §1, §2

[7] = tested on: E. coli NIHJ JC-2; test: MIC against E. coli NIHJ JC-2 by the plate diluted method; conditions: Escherichia coli, NIHJJC2
Method: as §1, §2

[8] = tested on: P. aeruginosa E-2; test: MIC against P. aeruginosa E-2 by the plate diluted method; conditions: Pseudomonas aeruginosa, E2
Method: as §1, §2

[9] = tested on: E. coli No. 29; test: MIC against E. coli No. 29 by the plate diluted method; conditions: Escherichia coli, 1×10^6 cells/ml
Method: as §1, §2

[10] = K. pneumoniae NCTC-9632, 1×10^6 cells/ml, read-out: MIC
[11] = S. marcescens IFO 12648, 1×10^6 cells/ml, read-out: MIC
[12] = A. calcoaceticus Ac-54, 1×10^6 cells/ml, read-out: MIC
[13] = M. moganii IIDkono, 1×10^6 cells/ml, read-out: MIC
[14] = P. aeruginosa ATCC-10145, 1×10^6 cells/ml, read-out: MIC
[15] = P. aeruginosa E-2, 1×10^6 cells/ml, read-out: MIC
[16] = S. aureaus FDA-209P, 1×10^6 cells/ml, read-out: MIC
[17] = E. coli NIHJ JC-2, 1×10^6 cells/ml, read-out: MIC

Row | Compound | MIC [1] [µg/mL] | MIC [2] [µg/mL] | MIC [3] [µg/mL] | MIC [4] [µg/mL] | MIC [5] [µg/mL] | MIC [6] [µg/mL] | MIC [7] [µg/mL] | MIC [8] [µg/mL] | MIC [1, 10] [µg/mL] | MIC [2, 11] [µg/mL] | MIC [3, 12] [µg/mL] | MIC [4, 13] [µg/mL] | MIC [6, 14] [µg/mL] | MIC [9] [µg/mL] | MIC [8, 15] [µg/mL] | MIC [5, 16] [µg/mL] | MIC [7, 17] [µg/mL]
1 | CC(C)(O/N=C(\C(=O)N[C@@H]1C(=O)N2C(C(=O)[O-])=C(C[n+]3ccccc3)CS[C@H]12)c1csc(N)n1)C(=O)O [CAZ, Ceftazizime, reference compound] | 0.05 (≈ 0.0915 µM) | 0.024 (≈ 0.0439 µM) | 1.56 (≈ 2.85 µM) | 0.05 (≈ 0.0915 µM) | 3.13 (≈ 5.73 µM) | 0.78 (≈ 1.43 µM) | 0.2 (≈ 0.366 µM) | 1.56 (≈ 2.85 µM) | – | – | – | – | – | – | – | – | –
2 | CC(C)(O/N=C(\C(=O)N[C@@H]1C(=O)N2C(C(=O)[O-])=C(CSc3cc[n+](CC(=O)c4ccc(O)c(O)c4)cc3)CS[C@H]12)c1csc(N)n1)C(=O)O [No. 16, (6R,7R)-7-[(Z)-2-(2-aminothiazol-4-yl)-2-(1-carboxy-1-methylethoxy)iminoacetamide]-3-[[1-[2-(3,4-dihydroxyphenyl)-2-oxo]ethyl]-4-pyridinio]thiomethyl-3-cephem-4-carboxylate] | – | – | – | – | 1.56 (≈ 2.14 µM) | – | – | – | 0.012 (≈ 0.0165 µM) | 0.024 (≈ 0.0329 µM) | 0.05 (≈ 0.0686 µM) | 0.05 (≈ 0.0686 µM) | 0.1 (≈ 0.137 µM) | 0.012 (≈ 0.0165 µM) | 0.1 (≈ 0.137 µM) | – | –
3 | CO/N=C(\C(=O)N[C@@H]1C(=O)N2C(C(=O)[O-])=C(CSc3cc[n+](CC(=O)c4ccc(O)c(O)c4)cc3)CS[C@H]12)c1csc(N)n1 [No. 17, (6R,7R)-[(Z)-2-(2-aminothiazol-4-yl)-2-methoxyiminoacetamide]-3-[[1-[2-(3,4-dihydroxyphenyl)-2-oxo]ethyl]-4-pyridinio]thiomethyl-3-cephem-4-carboxylat] | – | – | – | – | – | – | – | – | 0.012 (≈ 0.0183 µM) | 0.05 (≈ 0.0761 µM) | 0.1 (≈ 0.152 µM) | 0.1 (≈ 0.152 µM) | 0.2 (≈ 0.305 µM) | 0.012 (≈ 0.0183 µM) | 0.39 (≈ 0.594 µM) | 0.39 (≈ 0.594 µM) | –
4 | Cc1nc(SCC2=C(C(=O)O)N3C(=O)[C@@H](NC(=O)/C(=N\OCc4cc(=O)c(O)cn4O)c4nsc(N)n4)[C@H]3CS2)sc1CC(=O)O [No. 18, (6S,7S)-7-[(Z)-2-(5-amino-1,2,4-thiadiazol-3-yl)-2-(1,5-dihydroxy-4-pyridone-2-ylmethoxyimino)acetamide]-3-(5-carboxymethyl-4-methylthiazol-2-ylthiomethyl)isocephem-4-carboxylic acid] | – | – | – | 0.05 (≈ 0.0703 µM) | – | – | – | – | 0.024 (≈ 0.0338 µM) | 0.024 (≈ 0.0338 µM) | 0.1 (≈ 0.141 µM) | – | 0.1 (≈ 0.141 µM) | – | 0.1 (≈ 0.141 µM) | 100 (≈ 141 µM) | 0.1 (≈ 0.141 µM)
5 | Cc1nc(SCC2=C(C(=O)O)N3C(=O)[C@@H](NC(=O)/C(=N\OCc4cc(=O)c(O)cn4O)c4nsc(N)n4)[C@H]3SC2)sc1CC(=O)O [No. 19, (6R,7R)-7-[(Z)-2-(5-amino-1,2,4-thiadiazol-3-yl)-2-(1,5-dihydroxy-4-pyridone-2-ylmethoxyimino)acetamide]-3-(5-carboxymethyl-4-methylthiazol-2-ylthiomethyl)-3-cephem-4-carboxylic acid] | – | – | – | 0.05 (≈ 0.0703 µM) | – | – | – | – | 0.024 (≈ 0.0338 µM) | 0.024 (≈ 0.0338 µM) | 0.05 (≈ 0.0703 µM) | – | 0.05 (≈ 0.0703 µM) | – | 0.1 (≈ 0.141 µM) | 100 (≈ 141 µM) | 0.1 (≈ 0.141 µM)
6 | Nc1nc(/C(=N/OCc2cc(=O)c(O)cn2O)C(=O)N[C@@H]2C(=O)N3C(C(=O)O)=C(CSc4nnnn4CC(=O)O)SC[C@H]23)ns1 [No. 20, (6S,7S)-7-[(Z)-2-(5-amino-1,2,4-thiadiazol-3-yl)-2-(1,5-dihydroxy-4-pyridone-2-ylmethoxyimino)acetamide]-3-(1-carboxymethyl-1H-tetrazol-5-ylthiomethyl)-isocephem-4-carboxylic acid] | – | – | – | – | – | – | – | – | 0.012 (≈ 0.0176 µM) | 0.012 (≈ 0.0176 µM) | 0.05 (≈ 0.0734 µM) | 0.024 (≈ 0.0352 µM) | 0.05 (≈ 0.0734 µM) | – | 0.05 (≈ 0.0734 µM) | 100 (≈ 147 µM) | 0.05 (≈ 0.0734 µM)
7 | Nc1nc(/C(=N/OCc2cc(=O)c(O)cn2O)C(=O)N[C@@H]2C(=O)N3C(C(=O)O)=C(CSc4nnnn4CC(=O)O)CS[C@H]23)ns1 [No. 21, (6R,7R)-7-[(Z)-2-(5-amino-1,2,4-thiadiazol-3-yl)-2-(1,5-dihydroxy-4-pyridone-2-ylmethoxyimino)acetamide]-3-(1-carboxymethyl-1H-tetrazole-5-ylthiomethyl)-3-cephem-4-carboxylic acid] | – | – | – | – | – | – | – | – | 0.012 (≈ 0.0176 µM) | 0.012 (≈ 0.0176 µM) | 0.05 (≈ 0.0734 µM) | 0.024 (≈ 0.0352 µM) | 0.1 (≈ 0.147 µM) | – | 0.1 (≈ 0.147 µM) | 100 (≈ 147 µM) | 0.1 (≈ 0.147 µM)
